Like-named read-outs stand apart in the source and are kept apart here.
Columns and labels:
maize embryos = details: for Score (Callus initiation): transfer 2DG4 + AgNO3 +Cef, two weeks
Method: Immature embryos (1.2 to 2.2 mm in length) are aseptically excised 14-15 days after pollination from surface-sterilized, greenhouse-grown ears and plated scutellum up on callus initiation medium, 2DG4 + 5 mg/l chloramben (2DG4-5Chl). 2DG4 medium is Duncan's medium modified to contain […] sucrose.
Embryos with callus response: • Immature embryos are sterilized as described above and plated on callus initiation medium (2DG4-5Chl) and cultured therein for 1 to 7 days. The resulting tissue is used as samples for inoculation.
(§1) Strain A. tumefaciens LBA4404 (pAL4404, pSB1) is used in these experiments. pAL4404 is a disarmed helper plasmid. pSB1 is a wide host range plasmid that contains a region of homology to pGIGUP and a 15.2 kb Kpnl fragment from the virulence region of pTiBo542 (Ishida et al., 1996; High efficiency transformation of maize (Zea mays L.) mediated by Agrobacterium tumefaciens, Nature Biotechnology 14, 745-750). The introduction of the plasmid pGlGUP by electroporation into LBA4404(pAL4404, pSB1) results in a cointegration of pGlGUP and pSB1. The T-DNA of this plasmid contains a plant expressible PAT gene driven by the ubiquitin promoter to provide resistance to phosphinothricin and a gene for GUS with an intron in the N-terminal codon of the coding sequence driven by the Gelvin promoter. This intron-GUS gene expresses GUS activity in the plant cell but not in Agrobacterium.
(§2) Agrobacterium is grown for 3 days on YP medium (5g/l yeast extract, 10g/l peptone, 5g/l NaCl, 15 g/l agar, pH 6.8) supplemented with 50 mg/l spectinomycin and 10 mg/l tetracycline. Bacteria are collected with a loop and suspended in N6 liquid medium at a density ranging from 10^9 to 5 10^9cells/ml. Agrobacterium cells can also be collected from an overnight culture in YP medium and resuspended in N6 liquid medium.
(§3) Maize tissues prepared as described above are inoculated with Agrobacterium. Maize tissues are soaked in the bacterial suspension for 5-10 min and then plated on medium with or without silver nitrate (1 to 10 mg/l). Tissues are also inoculated with a 5 µl drop 10^9 to 5x10^9cells/ml of an Agrobacterium suspension placed on the top of the tissue. After inoculation, maize tissues are cultured in the dark at 25°C with or without silver nitrate in the medium (1 to 10 mg/l). 2 or 3 days after inoculation, tissues are transferred on the same medium supplemented with cefotaxime (250 mg/l) with or without silver nitrate.

maize type I callus = details: transfer 2DG4+ AgNO3 + Cef, 2 weeks
Method: Embryos plated on callus initiation medium (2DG4 + 5 Chloramben) for 7 to 20 days give rise to callus. […] Resultant embryogenic callus are cut out of embryos and transferred to callus maintenance medium, 2DG4 + 0.5 mg/l (2,4-dichlorophenoxy) acetic acid (2,4-D) and used as samples for inoculation.
Type I callus obtained by the method described above can be maintained on the maintenance medium (2DG4 + 2,4 D 0.5 mg/l) and subcultured every 2 weeks.
as §1, §2, §3

tobacco leaf discs = details: silver nitrate during co-cultivation; LBA4404(GIGUP) 10^9 cells/ml
cell line HE/89 = test: DNA fragmentation (DNA ladders) after Agrobacterium exposure, sensitivity to added agents; type: cell-based; details: maize cells exposed to Agrobacterium, agent added
Method: In order to determine the mechanism of cell death induced by Agrobacterium in maize tissues, genomic DNA is extracted from plant suspension cells harvested 24 or 48 hours after inoculation with Agrobacterium. Exposure to Agrobacterium causes DNA fragmentation in both maize lines, with a pattern characteristic of internucleosomal fragmentation, which is considered an early hallmark of programmed cell death. […] Furthermore, maize cells undergoing programmed cell death could not induce cell death of fresh maize embryogenic tissues.
Further evidence for Agrobacterium inducing DNA fragmentation is obtained by investigating the sensitivity of the process to Zn^2+ and Ca^2+. […] These characteristics are fully consistent with the effect of these divalent cations on the endogenous endonucleases responsible for DNA cleavage during apoptosis in animal system. The intensity of the ladder also is decreased by addition of cycloheximide, evidence that the process requires de novo gene expression. […] Fragmentation of DNA during apoptosis is also detected in situ by reagents that react with the exposed hydroxyls on the nucleosome units. 12 day old maize embryos from a proprietary elite line of Lancaster parentage are inoculated with LBA4404 and plated on DG4 medium supplemented with chloramben. Koziel, M.G., & al. 1993. Bio/Technology 11: 194-200. Apoptotic cells are detected by in situ staining with TACS-1 kit (Trevigen), which involves end labeling the DNA fragments by the klenow enzyme using dNTP conjugated to a detectable marker, giving a dark insoluble precipitate indicative of genomic fragmentation. Cullivier, O., Pirianov, G., Kleuser, B., Vanek, P.G., Coso, O.A., Gutking, J.S. and Spiegel, S. (1996) Nature 381, 800-803. Embryos are soaked in 3.7% formadehyde solution and processed as described by the manufacturer. To detect genomic DNA cleavage in situ, fixed embryos are treated with the TACS-1 kit. Fixed cross-sections are first treated with proteinase K for 5 min at room temperature and then dipped for 5 min into 2% hydrogen peroxide to remove endogenous peroxidase. […]

## CO/N=C(\C(=O)N[C@@H]1C(=O)N2C(C(=O)O)=C(COC(C)=O)CS[C@H]12)c1csc(N)n1 [cefotaxime]
HE/89
  necrosis of maize tissue: does not cause the maize tissue to become necrotic

## O=[N+]([O-])[O-].[Ag+] [AgNO3, silver nitrate]
Maize embryos; embryos plated on medium containing silver nitrate, inoculated with Agrobacterium
  embryos able to produce embryogenic calli: About 50%
Maize embryos; no pretreatment, co-inoculation 2DG4 + AgNO3, LBA4404 (GIGUP) 10^9 cells/ml
  Score (Callus initiation): 55%
Maize embryos; no pretreatment, co-inoculation 2DG4, LBA4404 (GIGUP) 10^9 cells/ml
  Score (Callus initiation): 30%
Maize embryos; pretreatment 2DG4 (6 days) + 1 day on 2DG4 + AgNO3, co-inoculation 2DG4 + AgNO3
  Score (Callus initiation): 88%
Maize embryos; pretreatment 2DG4 (6 days), co-inoculation 2DG4 + AgNO3
  Score (Callus initiation): 65%
Maize embryos; pretreatment 2DG4 + AgNO3 (1 day), co-inoculation 2DG4 + AgNO3
  Score (Callus initiation): 43%
Maize embryos; pretreatment 2DG4 + AgNO3(4 days), co-inoculation 2DG4 + AgNO3
  Score (Callus initiation): 27%
Maize type I callus; 1/2 month old Type I callus, pretreatment 2DG4+AgNO3, co-inoculation 2DG4+AgNO3
  Score (Survival of tissues): 95%
Maize type I callus; 1/2 month old Type I callus, pretreatment 2DG4, co-inoculation 2DG4+AgNO3
  Score (Survival of tissues): 75%
Maize type I callus; 10 month-old Type I callus, pretreatment 2DG4+ AgNO3, co-inoculation 2DG4+ AgNO3
  Score (Survival of tissues): 66%
Maize type I callus; 10 month-old Type I callus, pretreatment 2DG4, co-inoculation 2DG4+ AgNO3
  Score (Survival of tissues): 55%
Tobacco leaf discs
  GUS activity: No significant decrease

## C[C@@H]1C[C@@H]([C@H](O)CC2CC(=O)NC(=O)C2)C(=O)[C@@H](C)C1 [cycloheximide]
Cell line HE/89
  intensity of DNA ladders (genomic fragmentation): decreased

## [Ca+2] [Ca^2+]
Cell line HE/89
  intensity of DNA ladders (genomic fragmentation): increased the intensity of DNA ladders

## [Zn+2] [Zn^2+]
Cell line HE/89
  intensity of DNA ladders (genomic fragmentation): markedly reduced genomic fragmentation
